“And” between values parts separate entries of the source, which are not always exact repeats. Identical values can stand only once.

This is an account of results in patent US9249076B2, “Recyclable extractant compositions” (BUTAMAX ADVANCED BIOFUELS LLC, priority 2012, dated 2016).

A short description of data set [1]: Oil Stability Index (OSI), antioxidant activity in COFA, AOCS Cd 12b-92. Conditions: 110° C.
Experimental: Antioxidants were added on a weight percent basis to quantities of Corn Oil Fatty Acids (CAS No. 8001-30-7) and allowed to dissolve. […] COFA samples containing undissolved antioxidants were thoroughly mixed before withdrawing samples for analysis, to ensure the samples contained the specified weight percent of antioxidant.
Samples were run and the induction periods were determined according to AOCS method Cd 12b-92. All samples were tested at 110° C.
In data set [2] the test system is yeast (e.g., Saccharomyces). Conditions: cited from earlier work.
In data set [3] the test system is gram-negative and gram-positive bacteria (e.g., Lactobacillus). To be noted: cited from earlier work.

Regarding `CCCCCCCCCCCCCCCC(=O)OC[C@H](O)[C@H]1OC(=O)C(O)=C1O` [L-ascorbic acid 6-palmitate], the OSI was 10.05 h in data set [1] (Crude COFA, dose 0.0100 Wt %); 4.1 h in data set [1] (Crude COFA, dose 0.0200 Wt %); 25.4 h and 29.8 h in data set [1] (Crude COFA, dose 0.2000 Wt %); 26.4 h in data set [1] (Crude COFA, dose 0.2045 Wt %).
With `c1ccc2c(c1)Nc1ccccc1S2` [Phenothiazine], in data set [1] (Crude COFA, dose 0.2034 Wt %), the “Activity Index” value was 1.61 and the OSI was determined as 2.3 h.
For the compound `Cc1c(C)c2c(c(C)c1O)CC[C@@](C)(CCC[C@H](C)CCC[C@H](C)CCCC(C)C)O2` [a-Tocopherol], the “Activity Index” value in data set [1] (Distilled COFA, dose 0.2 Wt %) came to 2.63; in data set [1] (Distilled COFA, dose 1.1 Wt %), 1.13; in data set [1] (Distilled COFA, dose 2 Wt %), 1.13. In addition, the OSI in data set [1] (Distilled COFA, dose 0.2 Wt %) worked out at 0.35 h; in data set [1] (Distilled COFA, dose 1.1 Wt %) it was 0.15 h; in data set [1] (Distilled COFA, dose 2 Wt %), 0.15 h.
On to `O=C(O)c1cc(O)c(O)c(O)c1` [Gallic acid], for which, in data set [1] (Crude COFA, dose 0.193 Wt %), the “Activity Index” value was 1.70 and 1.25; the OSI is 7.9 h and 5.8 h.
In the case of `CCOc1ccc2c(c1)C(C)=CC(C)(C)N2` [Ethoxyquin], in data set [1] (Crude COFA, dose 0.2074 Wt %), the “Activity Index” value worked out at 0.67 and the OSI is 0.95 h.
With `Cc1cc(C(C)(C)C)c(O)c(C(C)(C)C)c1` [BHT, butylated hydroxytoluene], the Effect on yeast entry in data set [2] is “does not affect yeast”. Further, the “Activity Index” value in data set [1] (Crude COFA, dose 0.0200 Wt %) is 1.42; in data set [1] (Crude COFA, dose 0.1998 Wt %), 2.19; in data set [1] (Crude COFA, dose 0.2020 Wt %) it was 2.11; in data set [1] (Crude COFA, dose 0.205 Wt %), 2.43 and 2.72; in data set [1] (Crude COFA, dose 0.2097 Wt %), 2.07; in data set [1] (Distilled COFA, dose 0.2 Wt %) it was 17.63. Also, the “Activity Index” value stood at 52.50 in data set [1] (Distilled COFA, dose 1.1 Wt %) and 66.00 in data set [1] (Distilled COFA, dose 2 Wt %). The OSI was 1.85 h in data set [1] (Crude COFA, dose 0.0200 Wt %); 2.85 h in data set [1] (Crude COFA, dose 0.1998 Wt %); 3 h in data set [1] (Crude COFA, dose 0.2020 Wt %); 11.3 h and 12.65 h in data set [1] (Crude COFA, dose 0.205 Wt %); 2.95 h in data set [1] (Crude COFA, dose 0.2097 Wt %); 2.35 h in data set [1] (Distilled COFA, dose 0.2 Wt %). Further, the OSI in data set [1] (Distilled COFA, dose 1.1 Wt %) was determined as 7 h; in data set [1] (Distilled COFA, dose 2 Wt %) it was 8.8 h. Further, the Antimicrobial activity entry in data set [3] is given as “have antimicrobial activity”.
With `Cc1c(Cc2cc(C(C)(C)C)c(O)c(C(C)(C)C)c2)c(C)c(Cc2cc(C(C)(C)C)c(O)c(C(C)(C)C)c2)c(C)c1Cc1cc(C(C)(C)C)c(O)c(C(C)(C)C)c1` [Irganox 1330], in data set [1] (Crude COFA, dose 0.2046 Wt %), the “Activity Index” value stood at 1.65 and the OSI was found to be 2.35 h.
As for `CC(C)(C)c1cc(O)ccc1O` [TBHQ, tertiary-butylhydroquinone], the “Activity Index” value is recorded as 1.35 in data set [1] (Crude COFA, dose 0.0200 Wt %); 2.81 in data set [1] (Crude COFA, dose 0.2000 Wt %); 2.60 in data set [1] (Crude COFA, dose 0.2082 Wt %). For the same compound, the OSI was determined as 1.75 h in data set [1] (Crude COFA, dose 0.0200 Wt %); 3.65 h in data set [1] (Crude COFA, dose 0.2000 Wt %); 3.7 h in data set [1] (Crude COFA, dose 0.2082 Wt %).
